{"source": "patent US20190076384A1", "about": "“METHODS FOR TREATING UREA CYCLE DISORDERS” (priority 2017, published 2019)", "key": {"[1]": {"molecular_target": "Cytochrome P450 3A4 (Homo sapiens, UniProt P08684)", "sequence (P08684 whole entry)": "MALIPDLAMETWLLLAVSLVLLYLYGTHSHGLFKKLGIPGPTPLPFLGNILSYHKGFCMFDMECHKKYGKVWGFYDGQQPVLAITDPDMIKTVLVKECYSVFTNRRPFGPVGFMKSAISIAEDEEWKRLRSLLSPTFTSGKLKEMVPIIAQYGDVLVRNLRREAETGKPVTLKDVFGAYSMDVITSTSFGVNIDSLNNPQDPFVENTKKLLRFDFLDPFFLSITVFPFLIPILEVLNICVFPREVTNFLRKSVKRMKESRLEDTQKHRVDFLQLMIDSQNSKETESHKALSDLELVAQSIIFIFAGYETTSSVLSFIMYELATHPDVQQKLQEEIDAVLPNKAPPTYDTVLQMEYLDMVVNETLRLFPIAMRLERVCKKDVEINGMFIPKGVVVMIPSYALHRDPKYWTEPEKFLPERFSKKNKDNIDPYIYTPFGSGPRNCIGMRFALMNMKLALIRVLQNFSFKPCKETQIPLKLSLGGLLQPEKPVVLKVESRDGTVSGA", "assay": "clinical", "description": "Methodology: This was a Phase 1, open-label, monosequence crossover, drug-drug interaction study of RAVICTI® and midazolam in healthy male and female subjects.\nSingle doses of midazolam HCl syrup (2 mg/mL) were administered in the morning following an approximate 10-hour fast on Days 1 and 5 (coadministered with RAVICTI® on Day 5) just prior to administration of breakfast (˜5 minutes before breakfast).\nPharmacokinetics: Blood samples for the analysis of plasma midazolam and its metabolite (1′-OH-midazolam, free+conjugates) levels were collected via an indwelling catheter and/or via direct venipuncture. Blood samples were collected on Days 1 and 5 at the following time points: predose, 0.5, 1, 2, 3, 4, 6, 8, 10, 12, 16, and 24 hours postdose. In addition, five plasma PK samples for GPB analysis were collected on Day 4 at the following time points: at 1 minute, 30 minutes, and 1 hour following the first morning dose of RAVICTI; at 30 minutes and 1 hour post second dose of RAVICTI.\nPharmacokinetics: The possible drug-drug interaction was examined between coadministration of RAVICTI and midazolam (test) and midazolam administered alone (reference). An analysis of variance (ANOVA), with treatment as a fixed effect and subject as a random effect, was performed. Data for Cmax, AUC0-t, and AUC0-∞, as appropriate, were natural log (ln)-transformed prior to analysis. The 90% confidence intervals (CIs) of the test group means relative to the reference group means were obtained by taking the antilog of the corresponding 90% CIs for the differences between the means on the log scale, i.e., ratio of geometric least-squares (LS) means."}, "[2]": {"format": "in vivo, human"}, "[3]": {"assay": "Safety and tolerability of RAVICTI coadministered with midazolam", "format": "in vivo, human", "description": "(§1) Safety: Safety and tolerability were assessed through adverse events (AEs), clinical laboratory results, physical examination findings, vital sign measurements, and electrocardiograms (ECGs).\n(§2) Safety: Safety data were summarized by treatment and time point. Descriptive statistics (mean, standard deviation [SD], minimum, median, maximum, and sample size [N]) were calculated for quantitative safety data and frequency counts were compiled for classification of qualitative safety data. AE verbatim terms were mapped to preferred terms and system organ classes using the Medical Dictionary for Regulatory Activities (MedDRA®) (Version 16.1). Concomitant medications were coded with the World Health Organization (WHO) Dictionary version 1Mar. 2013."}, "[4]": {"molecular_target": "Cytochrome P450 2C9 (Homo sapiens, UniProt P11712)", "sequence (P11712 whole entry)": "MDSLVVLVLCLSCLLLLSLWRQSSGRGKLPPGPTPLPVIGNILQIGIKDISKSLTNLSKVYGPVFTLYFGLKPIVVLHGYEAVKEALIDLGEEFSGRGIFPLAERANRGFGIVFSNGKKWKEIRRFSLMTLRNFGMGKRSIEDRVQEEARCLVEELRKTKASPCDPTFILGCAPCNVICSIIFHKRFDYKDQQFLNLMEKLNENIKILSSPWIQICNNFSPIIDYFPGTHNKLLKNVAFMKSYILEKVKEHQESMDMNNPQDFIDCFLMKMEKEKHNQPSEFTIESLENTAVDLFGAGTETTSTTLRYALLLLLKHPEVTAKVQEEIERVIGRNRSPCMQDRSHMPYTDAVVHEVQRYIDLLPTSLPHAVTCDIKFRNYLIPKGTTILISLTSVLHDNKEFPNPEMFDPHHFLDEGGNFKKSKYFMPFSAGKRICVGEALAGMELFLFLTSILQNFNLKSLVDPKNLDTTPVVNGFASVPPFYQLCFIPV", "assay": "clinical", "conditions": "multiple doses of RAVICTI", "description": "Methodology: This was an open-label, 2-period, monosequence crossover, drug-drug interaction (DDI) study of RAVICTI and celecoxib in healthy male and female subjects.\nTest Product, Dose, Duration, and Mode of Administration: In Treatment A (Period 1), subjects received 200 mg celecoxib (1×200 mg capsule) administered orally with approximately 240 mL of water following an overnight fast and approximately 5 minutes prior to the start of a standard breakfast on Day 1.\nPharmacokinetics: Blood samples (4 mL) for the analysis of plasma celecoxib were collected on Days 1 (Period 1) and 4 (Period 2) at the following time points: predose (Hour 0) and 1, 2, 3, 4, 6, 8, 12, 16, 24, 36, 48, 60, and 72 hours postdose. A blood sample (6 mL) for CYP2C9 genotyping was collected at screening to exclude any subjects with a slow metabolizer genotype (i.e., CYP2C9*2/*2, CYP2C9*2/*3, CYP2C9*1/*3, and CYP2C9*3/*3). PK parameters for celecoxib in plasma were computed following Day 1 (Period 1) and Day 4 (Period 2) blood draws and included AUC0-t, AUC0-inf, AUC%extr, Cmax, tmax, t1/2, kel, and CL/F.\nPharmacokinetics: The possible DDI was examined between co-administration of RAVICTI and celecoxib (Treatment B, test) and celecoxib administered alone (Treatment A, reference). An analysis of variance (ANOVA) was performed with treatment as a fixed effect and subject as a random effect. Data for AUC0-t, AUC0-inf, and Cmax, as appropriate, were ln-transformed prior to analysis. The 90% confidence intervals (CIs) of the test group means relative to the reference group means were obtained by taking the antilog of the corresponding 90% CIs for the differences between the means on the log scale, i.e., ratio of geometric least-squares (LS) means."}, "[5]": {"assay": "Safety and tolerability of RAVICTI co-administered with celecoxib", "format": "in vivo, human", "description": "as §1\nas §2, with “18.0).” for “16.1).”, “2015.” for “2013.”"}, "[6]": {"molecular_target": "CYP2C9 (Homo sapiens, UniProt P11712)", "sequence (P11712 whole entry)": "as above", "conditions": "Diclofenac 4′-hydroxylase, 5 mM"}, "[7]": {"molecular_target": "CYP2D6 (Homo sapiens, UniProt P10635)", "sequence (P10635 whole entry)": "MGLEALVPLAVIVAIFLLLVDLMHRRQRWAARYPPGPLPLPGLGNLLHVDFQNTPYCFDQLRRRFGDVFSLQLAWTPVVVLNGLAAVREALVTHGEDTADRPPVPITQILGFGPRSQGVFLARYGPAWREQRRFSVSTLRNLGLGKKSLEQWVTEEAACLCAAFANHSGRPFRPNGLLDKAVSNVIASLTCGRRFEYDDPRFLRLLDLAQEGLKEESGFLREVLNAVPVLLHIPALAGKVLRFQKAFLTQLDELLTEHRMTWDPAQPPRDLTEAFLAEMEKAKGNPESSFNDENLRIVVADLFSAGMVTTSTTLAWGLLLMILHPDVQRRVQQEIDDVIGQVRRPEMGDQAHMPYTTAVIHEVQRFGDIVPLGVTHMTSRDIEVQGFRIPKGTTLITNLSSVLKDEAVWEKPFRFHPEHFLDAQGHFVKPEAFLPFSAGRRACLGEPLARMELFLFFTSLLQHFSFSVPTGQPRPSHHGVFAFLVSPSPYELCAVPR", "conditions": "Bufuralol 1′-hydroxylase, 5 mM"}, "[8]": {"conditions": "RAVICTI coadministered with midazolam, 24 healthy subjects"}, "[9]": {"conditions": "RAVICTI co-administered with celecoxib, 28 healthy subjects"}}, "note": "Read-outs that look alike come from different tables or passages of the source."}
{"smiles": "O=C(CCCc1ccccc1)OCC(COC(=O)CCCc1ccccc1)OC(=O)CCCc1ccccc1", "note": "[RAVICTI, benzenebutanoic acid, 1′,1″-(1,2,3-propanetriyl) ester]", "values": [{"measurement": "drug-drug interaction by statistical analysis of Cmax, AUC0-t and AUC0-∞", "setting": "[1]; RAVICTI metabolites with midazolam and 1′-OH-midazolam, 90% CIs outside 80 to […]", "value": "significant drug-drug interaction"}, {"measurement": "effect on CYP3A4 enzyme in vivo (conclusion)", "setting": "[1]; steady-state RAVICTI, healthy subjects", "value": "weak inducer"}, {"measurement": "Plasma glycerol phenylbutyrate concentrations", "setting": "[2]; Day 4 samples, not quantifiable, LLOQ=1.00 ng/mL", "value": "< 1.00", "unit": "ng/mL"}, {"measurement": "Intact glycerol phenylbutyrate in plasma", "setting": "[2]; healthy subjects, RAVICTI oral", "value": "not detectable"}, {"measurement": "deaths, SAEs, discontinuations due to AEs", "setting": "[3]; [8]", "value": "no deaths, serious adverse events (SAEs), or subject discontinuations due to AEs"}, {"measurement": "subjects experiencing TEAEs", "setting": "[3]; [8]", "value": 6, "unit": "subjects"}, {"measurement": "total TEAEs", "setting": "[3]; [8]", "value": 10}, {"measurement": "safety and tolerability (conclusion)", "setting": "[3]; oral RAVICTI coadministered with midazolam, healthy adults", "value": "safe and generally well tolerated"}, {"measurement": "inhibition of CYP2C9 activity in vivo", "setting": "[4]", "value": "did not appear to inhibit"}, {"measurement": "deaths, SAEs, discontinuations due to AEs", "setting": "[5]; [9]", "value": "no deaths, SAEs, or subject discontinuations due to AEs"}, {"measurement": "subjects experiencing TEAEs", "setting": "[5]; [9]", "value": 8, "unit": "subjects"}, {"measurement": "total TEAEs", "setting": "[5]; [9]", "value": 23}, {"measurement": "safety and tolerability (conclusion)", "setting": "[5]; oral RAVICTI co-administered with celecoxib, healthy adults", "value": "safe and generally well tolerated"}, {"measurement": "% Inhibition", "setting": "[6]; pre-incubation time 0 min", "value": 35, "unit": "%"}, {"measurement": "% Inhibition", "setting": "[6]; pre-incubation time 30 min", "value": 19, "unit": "%"}, {"measurement": "% Inhibition", "setting": "[7]; pre-incubation time 0 min", "value": 1, "unit": "%"}, {"measurement": "% Inhibition", "setting": "[7]; pre-incubation time 30 min", "value": 4, "unit": "%"}]}
